The results in this text go back to paper PMC6093661, “Vitamin E hydroquinone is an endogenous regulator of ferroptosis via redox control of 15-lipoxygenase” (PLoS ONE, 2018).

The structures appear in SMILES notation.

The target in data set [1] is T1, Soybean 15-lipoxygenase (SLO) (Glycine max, UniProt P08170).
T1 construct: purchased Cayman Chemical 60700
T1 sequence (P08170 1-839): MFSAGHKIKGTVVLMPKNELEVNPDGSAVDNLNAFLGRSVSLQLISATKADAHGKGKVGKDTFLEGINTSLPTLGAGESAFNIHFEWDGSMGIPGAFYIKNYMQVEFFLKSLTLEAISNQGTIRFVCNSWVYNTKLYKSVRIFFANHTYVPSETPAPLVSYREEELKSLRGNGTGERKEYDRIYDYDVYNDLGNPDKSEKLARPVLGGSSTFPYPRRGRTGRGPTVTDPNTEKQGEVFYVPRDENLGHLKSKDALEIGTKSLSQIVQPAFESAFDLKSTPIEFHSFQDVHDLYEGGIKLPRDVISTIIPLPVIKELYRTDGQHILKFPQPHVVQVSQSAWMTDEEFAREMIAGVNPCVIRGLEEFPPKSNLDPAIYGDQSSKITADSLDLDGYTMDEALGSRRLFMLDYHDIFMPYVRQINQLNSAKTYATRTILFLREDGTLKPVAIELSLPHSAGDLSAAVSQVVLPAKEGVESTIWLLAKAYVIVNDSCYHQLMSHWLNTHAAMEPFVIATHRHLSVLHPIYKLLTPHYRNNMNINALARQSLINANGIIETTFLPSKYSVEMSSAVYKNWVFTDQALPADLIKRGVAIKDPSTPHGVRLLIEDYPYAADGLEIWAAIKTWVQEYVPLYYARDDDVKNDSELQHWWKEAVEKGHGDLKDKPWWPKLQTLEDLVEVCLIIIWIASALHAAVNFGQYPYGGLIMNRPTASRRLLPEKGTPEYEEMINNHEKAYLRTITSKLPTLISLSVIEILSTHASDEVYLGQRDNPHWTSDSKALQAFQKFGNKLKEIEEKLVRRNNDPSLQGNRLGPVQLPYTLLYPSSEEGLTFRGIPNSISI
The data set can be described thus: EPR spectroscopy of lipoxygenase active-site iron redox state. Particulars: SLO oxidised with lipid-OOH set to 100% Fe3+; addition of compound. Format: biochemical. How it is done: Lipoxygenase: Soybean 15-lipoxygenase (SLO) was buffer exchanged into 50 mM borate buffer, pH 9.0 containing 10% (v/v) glycerol. The resulting protein solution was concentrated to approximately 100 μM, based upon the supplier’s activity per mL and specific activity per mg. The active-site iron oxidation state was further evaluated by EPR under three treatment conditions: 1) No treatment, 2) oxidation with 3-fold molar excess of lipid hydroperoxide (final concentration of 300 μM) from an ethanol stock, 3) oxidation with 3-fold molar excess of lipid hydroperoxide followed by 10-fold molar excess of αTHQ or αT3HQ (final concentration of 1 mM) from a DMSO stock. All samples contained the same final concentrations of ethanol and DMSO as sample 3. The EPR spectra of buffer alone were also evaluated to allow for baseline subtraction.
CW-EPR spectra were recorded at 150 K on a Bruker ELEXYS E540 spectrometer fitted with an X-band microwave bridge, a Super High Sensitivity Resonator (SHQ), and a Nitrogen VT apparatus. The spectra were recorded at 9.43 GHz with 1.002 mW microwave power, 10 G modulation amplitude, 100 kHz modulation frequency, 25 scans.

Data set [2] concerns Mouse striatal Q7 cells (STHdhQ7/Q7). Put plainly: RSL3 ferroptosis cell rescue (cellular survival assay, CellTiter-Glo). On the technique in general: ATP-based viability assays read luminescence as a measure of living cells.
Data set [3] deals with Q7 cells. Put plainly: Cellular lipid oxidation assay (BODIPY 581/591 C11, RSL3-treated Q7 cells). Format: cell-based, mouse. Particulars: RSL3 2 μM, 6-point titration, time-lapse microscopy. How it is done: Ferroptosis was induced by RSL3 (2 μM final concentration) in Q7 cells as described above. The protective activity of co-treated compounds was assessed also as described above. The rate of cellular lipid oxidation after GPX4 inhibition was assessed by monitoring the time-dependent changes in green fluorescence of cells pre-labeled with BODIPY™ 581/591 C11 dye (5 μM, 30-minute labeling period; Thermo Fisher/Invitrogen) using the IncuCyte S3 live-cell imaging apparatus (Sartorius) using a 10x objective. Cells (three images per field; at least three replicate wells per condition) were imaged once hourly for up to 18 hours after compound and RSL3 addition. Quantification of cell images was performed using the IncuCyte Zoom software using the Basic Analyzer tool which utilized an algorithm that calculated the total green-positive area per well where “green-positive” was defined as 1.45 times the local background-subtracted fluorescent signal. After a 2-3-hour lag period post-RSL3 treatment, the cellular green fluorescence signal began increasing. The rate of change in total green-positive area per well from 3–9 hours post-compound treatment was calculated, then expressed relative to that observed in the RSL3-only control treatment group, which was defined as 100%.

The test system of data set [4] is Q7 cells. The data set can be described thus: Intracellular quantification of αT, αTQ and αTHQ in Q7 cells (LC-MS/MS, succinate capping). Particulars: all cases tested (basal, αT- or αTQ-supplemented).
Data set [5] addresses T2, Rabbit 15-lipoxygenase (rLOX15) (Oryctolagus cuniculus, UniProt P12530).
T2 construct: purchased Enzo Life Sciences, Inc. BML-PL015
T2 sequence (P12530 1-663): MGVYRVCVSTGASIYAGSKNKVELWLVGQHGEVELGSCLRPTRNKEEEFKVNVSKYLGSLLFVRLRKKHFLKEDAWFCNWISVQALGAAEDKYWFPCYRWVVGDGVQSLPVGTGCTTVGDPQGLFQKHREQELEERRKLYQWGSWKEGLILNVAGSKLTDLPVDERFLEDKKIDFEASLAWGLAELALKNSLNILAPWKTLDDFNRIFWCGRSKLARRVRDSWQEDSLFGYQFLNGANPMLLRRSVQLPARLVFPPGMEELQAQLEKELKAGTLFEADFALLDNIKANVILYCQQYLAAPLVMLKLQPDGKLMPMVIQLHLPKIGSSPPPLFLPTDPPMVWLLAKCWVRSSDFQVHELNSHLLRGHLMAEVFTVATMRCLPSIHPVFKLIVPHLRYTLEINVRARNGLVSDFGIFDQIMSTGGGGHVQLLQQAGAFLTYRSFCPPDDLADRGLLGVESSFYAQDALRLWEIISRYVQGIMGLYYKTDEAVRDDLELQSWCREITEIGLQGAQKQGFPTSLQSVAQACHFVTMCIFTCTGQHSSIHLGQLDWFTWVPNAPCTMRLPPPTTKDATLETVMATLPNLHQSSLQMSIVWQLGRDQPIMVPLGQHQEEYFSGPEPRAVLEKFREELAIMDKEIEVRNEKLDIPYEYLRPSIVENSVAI
Put plainly: Lipoxygenase enzyme inhibition assay. Format: biochemical. Particulars: rabbit 15-LO. How it is done:
Rabbit 15-lipoxygenase (rLOX15, part number BML-PL015, lot number 3-P9009a) was obtained from Enzo Life Sciences, Inc. Sodium cholate (part number C6445, lot number 094K0209) was obtained from Sigma-Aldrich.
Stock solutions of test compounds were prepared in DMSO and then diluted to final assay concentrations in cholate mix such that final cholate and DMSO concentrations were maintained at 0.2%.

Data set [6] in a line: Radical-trapping antioxidant (RTA) activity assay in DOPC liposomes. To be noted: 50 μM compound, 2 mol% in DOPC liposomes, BODIPY 581/591 C11 quenching; liposome-only control = 1.
Data set [7] is described as follows: ORAC (oxygen radical absorbance capacity) assay. To be noted: average of 25 and 12.5 μM compound; mean, SEM, n = 6. The procedure:
ORAC assay kits were purchased from Cell Biolabs. Assays were performed per the manufacturer’s instructions for lipophilic samples with minor modifications. DMSO stock solutions of compounds were diluted in an anaerobic glovebox to final concentrations of 25 and 12.5 μM in triplicate. A standard curve of Trolox® between 0–100 μM in triplicate per concentration was also generated on each assay plate. Diluted compounds and standards were removed from the glovebox and reactions initiated by addition of aerobic fluorescein reagent and radical initiator. Fluorescein fluorescence was monitored at excitation wavelength of 480 nm and emission wavelength of 520 nm every minute for one hour. AUC analysis was performed as described in the kit protocol. The “Trolox equivalents” at each concentration of test compound were calculated and the average Trolox equivalents at the two compound concentrations are presented. The errors were determined by propagating errors from the SEMs of the triplicate determinations to the averages across the two triplicate determinations.

Turning to `Cc1c(C)c(O)c(CC[C@](C)(O)CCC[C@H](C)CCC[C@H](C)CCCC(C)C)c(C)c1O` [αTHQ, α-tocopherol hydroquinone], in data set [1], the “decrease in the SLO-Fe3+ signal” value is given as 50%. Also, in data set [2] (Mus musculus, 18 h, read-out: RSL3 Ferroptosis Cell Assay Average EC50, Q7 cells, RSL3 2 μM, 18 h co-treatment, CellTiter-Glo 2.0), the half-maximal effective concentration (EC50) – broadly, the concentration needed to bring the measured effect to its halfway point – was determined as 90 ± 30 nM. For the same compound, the “fold more potent than αT in preventing ferroptotic cell death” value in data set [2] (Q7 cells, RSL3, EC50 ratio vs αT) amounted to 57 fold. In addition, the “effect on RSL3-induced lipid oxidation (BODIPY 581/591 C11 oxidation)” value in the data set on Q7 cells [3] is recorded as “prevented”. For the same compound, in the data set with Q7 cells [4], the “cellular αTHQ exposures exceed those of αTQ” value is reported as 3- to 4 fold. In addition, the “15-LO inhibitory potency fold compared with αTQ, αT, or αTCC” value in data set [5] was greater than 40 fold. For the same compound, in data set [5] (50 μM arachidonic acid substrate), inhibition was half-maximal at 2450 nM (IC50). In data set [5] (compound 100 μM, read-out: 15-Lipoxygenase Enzyme Assay % activity at 100 μM), the activity at 100 µM was 15%. In data set [6], the “Radical Trapping Assay AUC (Rel. Control)” value is reported as 1.855. In addition, in data set [7], the “ORAC Antioxidant Activity Assay Trolox Equiv.” value was found to be 0.106 Trolox Equiv.
